The source of these data is patent US8134007B2, “Pyridine derivatives” (Pfizer Inc., priority 2007, dated 2012).

Common to all, as to type: cell-based
One assay concerns the target T1, Human Nav1.8 (Homo sapiens, UniProt Q9Y5Y9).
T1 construct: expressed in transfected cells; host or cells: HEK293
Put plainly: VIPR Assay for Nav1.8 Compounds (FRET membrane potential, deltamethrin opener). Conditions: VIPR FRET membrane potential assay, deltamethrin opener; average of replicates; read-out: Nav1.8 IC50.

Assay [1] has as its system tetrodotoxin-sensitive voltage-gated sodium channels including NaV1.2, NaV1.3 and NaV1.7. Put plainly: TTX-S Assay (VIPR, SHSY-5Y cell line, veratridine opener). Conditions: read-out: TTX-S IC50, veratridine 50 μM opener, average of replicates.
The next assay concerns the target T2, Human Nav1.5 (Homo sapiens, UniProt Q14524).
T2 construct: expressed in transfected cells; host or cells: HEK293
The assay is described as follows: Nav1.5 Assay (VIPR, HEK293 cells). Conditions: HEK293 cells expressing Human Nav1.5; average of replicates; read-out: Nav1.5 IC50. On the procedure:
The Nav1.5 assay is performed in HEK293 cells expressing Human Nav1.5 in the same way as the Nav1.8 assay.
Where replicate experiments were conducted resulting in multiple sets of data for a test compound, the data presented represent the average value from all replicate experiments.

T1 sequence (Q9Y5Y9 whole entry): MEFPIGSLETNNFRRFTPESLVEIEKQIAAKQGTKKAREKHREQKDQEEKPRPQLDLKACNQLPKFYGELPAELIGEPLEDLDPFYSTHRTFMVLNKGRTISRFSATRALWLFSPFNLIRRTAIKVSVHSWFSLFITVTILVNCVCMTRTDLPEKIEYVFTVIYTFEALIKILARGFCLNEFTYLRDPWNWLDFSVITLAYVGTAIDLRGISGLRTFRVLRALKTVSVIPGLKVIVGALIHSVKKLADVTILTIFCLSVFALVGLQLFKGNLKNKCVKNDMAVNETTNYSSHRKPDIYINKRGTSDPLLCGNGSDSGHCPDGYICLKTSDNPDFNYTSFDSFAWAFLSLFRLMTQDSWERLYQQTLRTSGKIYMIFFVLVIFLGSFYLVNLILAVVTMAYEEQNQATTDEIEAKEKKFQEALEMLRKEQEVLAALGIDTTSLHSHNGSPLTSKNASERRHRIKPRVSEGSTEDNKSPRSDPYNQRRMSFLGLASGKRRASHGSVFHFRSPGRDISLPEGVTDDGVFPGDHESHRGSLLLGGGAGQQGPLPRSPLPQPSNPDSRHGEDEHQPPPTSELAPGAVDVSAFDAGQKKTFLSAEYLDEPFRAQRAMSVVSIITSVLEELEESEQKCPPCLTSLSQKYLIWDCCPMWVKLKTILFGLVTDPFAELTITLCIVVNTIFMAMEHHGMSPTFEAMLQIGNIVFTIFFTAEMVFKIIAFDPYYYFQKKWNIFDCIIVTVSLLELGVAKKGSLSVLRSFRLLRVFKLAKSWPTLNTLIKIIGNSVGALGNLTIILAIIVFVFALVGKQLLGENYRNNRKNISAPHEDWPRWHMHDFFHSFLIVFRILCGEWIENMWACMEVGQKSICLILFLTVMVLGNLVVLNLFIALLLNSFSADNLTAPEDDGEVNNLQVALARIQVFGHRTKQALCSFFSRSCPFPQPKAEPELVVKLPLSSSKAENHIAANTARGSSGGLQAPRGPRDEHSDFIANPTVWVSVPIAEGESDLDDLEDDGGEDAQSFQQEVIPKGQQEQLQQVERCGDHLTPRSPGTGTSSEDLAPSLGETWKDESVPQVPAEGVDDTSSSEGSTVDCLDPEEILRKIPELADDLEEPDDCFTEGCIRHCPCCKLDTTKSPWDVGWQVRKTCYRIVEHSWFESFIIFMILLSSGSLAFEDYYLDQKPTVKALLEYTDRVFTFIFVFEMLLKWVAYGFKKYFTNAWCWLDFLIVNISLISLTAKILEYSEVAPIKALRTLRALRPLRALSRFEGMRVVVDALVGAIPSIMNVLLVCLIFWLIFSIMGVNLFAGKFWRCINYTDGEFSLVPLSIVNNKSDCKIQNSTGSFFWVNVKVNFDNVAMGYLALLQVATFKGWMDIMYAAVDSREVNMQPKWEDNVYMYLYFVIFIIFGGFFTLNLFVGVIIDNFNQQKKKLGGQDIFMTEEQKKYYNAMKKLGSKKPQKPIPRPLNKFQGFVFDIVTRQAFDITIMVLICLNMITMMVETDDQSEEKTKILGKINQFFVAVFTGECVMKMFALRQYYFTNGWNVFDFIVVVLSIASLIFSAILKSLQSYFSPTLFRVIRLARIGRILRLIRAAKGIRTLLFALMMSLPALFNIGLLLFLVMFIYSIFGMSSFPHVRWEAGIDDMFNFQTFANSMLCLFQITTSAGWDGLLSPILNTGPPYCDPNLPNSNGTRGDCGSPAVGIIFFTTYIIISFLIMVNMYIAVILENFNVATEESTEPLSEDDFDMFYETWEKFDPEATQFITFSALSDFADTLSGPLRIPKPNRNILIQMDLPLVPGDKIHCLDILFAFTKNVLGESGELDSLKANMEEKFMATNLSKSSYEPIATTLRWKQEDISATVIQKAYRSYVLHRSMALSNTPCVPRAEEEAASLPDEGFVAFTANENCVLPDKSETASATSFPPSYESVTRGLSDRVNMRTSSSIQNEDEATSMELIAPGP
T2 sequence (Q14524 whole entry): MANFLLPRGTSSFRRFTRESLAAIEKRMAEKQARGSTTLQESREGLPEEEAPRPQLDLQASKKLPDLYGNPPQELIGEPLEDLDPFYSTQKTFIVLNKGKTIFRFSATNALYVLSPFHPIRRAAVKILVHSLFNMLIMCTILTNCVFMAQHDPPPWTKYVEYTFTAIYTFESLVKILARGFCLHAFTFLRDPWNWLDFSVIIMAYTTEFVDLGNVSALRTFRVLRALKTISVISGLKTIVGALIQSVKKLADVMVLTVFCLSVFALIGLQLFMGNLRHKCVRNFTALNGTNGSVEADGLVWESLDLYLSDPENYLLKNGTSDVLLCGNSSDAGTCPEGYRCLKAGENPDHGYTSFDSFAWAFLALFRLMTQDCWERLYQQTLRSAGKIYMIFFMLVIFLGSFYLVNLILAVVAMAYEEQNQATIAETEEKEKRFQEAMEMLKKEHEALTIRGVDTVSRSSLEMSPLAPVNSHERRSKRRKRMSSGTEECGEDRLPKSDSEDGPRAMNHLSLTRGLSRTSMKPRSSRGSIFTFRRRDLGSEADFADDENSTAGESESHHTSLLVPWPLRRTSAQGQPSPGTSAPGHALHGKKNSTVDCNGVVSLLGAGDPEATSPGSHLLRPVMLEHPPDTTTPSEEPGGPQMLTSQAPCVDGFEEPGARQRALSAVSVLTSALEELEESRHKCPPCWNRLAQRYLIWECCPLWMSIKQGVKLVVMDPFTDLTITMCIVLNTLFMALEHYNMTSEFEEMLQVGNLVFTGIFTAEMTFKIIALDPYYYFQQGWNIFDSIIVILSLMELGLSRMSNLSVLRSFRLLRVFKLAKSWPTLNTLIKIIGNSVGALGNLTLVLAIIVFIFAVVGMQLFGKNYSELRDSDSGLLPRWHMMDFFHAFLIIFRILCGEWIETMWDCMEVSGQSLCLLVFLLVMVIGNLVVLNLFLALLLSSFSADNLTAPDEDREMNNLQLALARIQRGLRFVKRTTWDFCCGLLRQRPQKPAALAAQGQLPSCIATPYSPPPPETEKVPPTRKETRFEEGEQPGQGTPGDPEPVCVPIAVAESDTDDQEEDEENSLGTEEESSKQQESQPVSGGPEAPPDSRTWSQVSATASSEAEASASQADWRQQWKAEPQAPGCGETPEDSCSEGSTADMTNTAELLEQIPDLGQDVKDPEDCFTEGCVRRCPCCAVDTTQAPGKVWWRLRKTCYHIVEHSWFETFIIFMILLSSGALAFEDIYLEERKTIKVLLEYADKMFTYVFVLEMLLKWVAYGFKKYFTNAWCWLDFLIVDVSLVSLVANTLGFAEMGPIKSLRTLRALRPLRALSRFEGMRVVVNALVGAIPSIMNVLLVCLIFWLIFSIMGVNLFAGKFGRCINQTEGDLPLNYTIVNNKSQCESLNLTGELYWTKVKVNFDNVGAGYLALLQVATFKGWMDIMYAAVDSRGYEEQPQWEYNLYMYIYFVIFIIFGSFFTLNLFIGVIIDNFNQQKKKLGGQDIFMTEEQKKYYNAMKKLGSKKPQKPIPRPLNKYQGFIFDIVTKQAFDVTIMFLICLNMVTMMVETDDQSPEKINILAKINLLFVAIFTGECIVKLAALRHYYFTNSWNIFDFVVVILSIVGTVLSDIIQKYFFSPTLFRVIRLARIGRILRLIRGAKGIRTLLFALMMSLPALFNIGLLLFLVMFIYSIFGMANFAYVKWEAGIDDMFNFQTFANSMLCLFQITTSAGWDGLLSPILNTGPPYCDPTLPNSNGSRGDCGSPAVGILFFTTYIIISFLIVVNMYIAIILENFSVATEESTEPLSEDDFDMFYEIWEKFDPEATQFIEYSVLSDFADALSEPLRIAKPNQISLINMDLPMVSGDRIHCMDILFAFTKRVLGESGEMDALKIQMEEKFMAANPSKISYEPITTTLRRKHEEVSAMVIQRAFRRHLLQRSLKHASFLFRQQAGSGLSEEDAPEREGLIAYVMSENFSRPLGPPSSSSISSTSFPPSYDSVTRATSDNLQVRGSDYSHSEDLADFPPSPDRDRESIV

In general, IC50 refers to the point on the concentration scale where inhibition reaches its midpoint. On to `CCn1nccc1C(=O)Nc1ccc(-c2ccc(F)cc2Cl)c(N)n1` [Example 55, N-[6-Amino-5-(2-chloro-4-fluorophenyl)pyridin-2-yl]-1-ethyl-1H-pyrazole-5-carboxamide], for which the half-maximal inhibitory concentration (IC50) at Human Nav1.8 was 23 µM; in assay [1] it was > 32 µM; at Human Nav1.5, > 32 µM.
For the compound `CCn1nccc1C(=O)Nc1ccc(-c2cc(Cl)cc(OC)c2Cl)c(N)n1` [Example 62, N-[6-Amino-5-(2,5-dichloro-3-methoxyphenyl)pyridin-2-yl]-1-ethyl-1H-pyrazole-5-carboxamide], the 50% inhibitory concentration (IC50) on Human Nav1.8 is 5.1 µM; in assay [1] it was 11 µM; at Human Nav1.5 it was 17 µM.
In the same order, the values of `COc1cc(Cl)c(Cl)c(-c2ccc(NC(=O)c3conc3C)nc2N)c1` [Example 29, N-[6-Amino-5-(2,3-dichloro-5-methoxyphenyl)pyridin-2-yl]-3-methylisoxazole-4-carboxamide] are 0.55 µM, 8.2 µM and 6.4 µM.
In the same order, the values of `Cc1nocc1C(=O)Nc1ccc(-c2ccccc2C(F)(F)F)c(N)n1` [Example 2, N-{6-Amino-5-[2-(trifluoromethyl)phenyl]pyridin-2-yl}-3-methylisoxazole-4-carboxamide] are 1.7 µM, 30 µM and > 32 µM.
In the same order, the values of `Cc1nocc1C(=O)Nc1ccc(-c2cccc(C(F)(F)F)c2Cl)c(N)n1` [Example 124] are 11 µM, 8.6 µM and 12 µM.
On to `COCc1nocc1C(=O)Nc1ccc(-c2cc(F)ccc2Cl)c(N)n1` [Example 90, N-[6-Amino-5-(2-chloro-5-fluorophenyl)pyridin-2-yl]-3-(methoxymethyl)isoxazole-4-carboxamide], for which the IC50 was 0.55 µM on Human Nav1.8, > 32 µM in assay [1] and > 32 µM at Human Nav1.5.
Regarding `COc1cc(Cl)cc(-c2ccc(NC(=O)c3cnnn3C)nc2N)c1Cl` [Example 87, N-[6-Amino-5-(2,5-dichloro-3-methoxyphenyl)pyridin-2-yl]-1-methyl-1H-1,2,3-triazole-5-carboxamide], the IC50 on Human Nav1.8 amounted to 6.1 µM; in assay [1], 15 µM; on Human Nav1.5 it was 9.9 µM.
For `CC(C)n1nccc1C(=O)Nc1ccc(-c2ccccc2OC(F)(F)F)c(N)n1` [Example 68, N-{6-Amino-5-[2-(trifluoromethoxy)phenyl]pyridin-2-yl}-1-isopropyl-1H-pyrazole-5-carboxamide], in that order: 3.9 µM, 5 µM and 17 µM.
For `CCn1nccc1C(=O)Nc1ccc(-c2ccccc2Cl)c(N)n1` [Example 53, N-[6-Amino-5-(2-chlorophenyl)pyridin-2-yl]-1-ethyl-1H-pyrazole-5-carboxamide], in that order: 2.3 µM, 15 µM and 22 µM.
On to `Cn1ccc(C(=O)Nc2ccc(-c3cc(Cl)cc(Cl)c3Cl)c(N)n2)n1` [Example 70, N-[6-Amino-5-(2,3,5-trichlorophenyl)pyridin-2-yl]-1-methyl-1H-pyrazole-3-carboxamide], for which the concentration for half-maximal inhibition (IC50) on Human Nav1.8 was found to be 11 µM; in assay [1], 14 µM; on Human Nav1.5, 28 µM.
Turning to `COCc1oncc1C(=O)Nc1ccc(-c2cc(F)ccc2Cl)c(N)n1` [Example 92], the results for the 50% inhibitory concentration (IC50) (on Human Nav1.8; in assay [1]; on Human Nav1.5) were 0.57 µM, 17 µM and 19 µM, respectively.
Regarding `Cc1nocc1C(=O)Nc1ccc(-c2cccc3c2OCCO3)c(N)n1` [Example 35, N-[6-Amino-5-(2,3-dihydro-1,4-benzodioxin-5-yl)pyridin-2-yl]-3-methylisoxazole-4-carboxamide], the IC50 was 11 µM at Human Nav1.8, > 32 µM in assay [1] and > 32 µM on Human Nav1.5.
Turning to `Cc1nocc1C(=O)Nc1ccc(-c2ccccc2OC(F)(F)F)c(N)n1` [Example 43, N-{6-Amino-5-[2-(trifluoromethoxy)phenyl]pyridin-2-yl}-3-methylisoxazole-4-carboxamide], the results for the IC50 (on Human Nav1.8; in assay [1]; at Human Nav1.5) were 0.32 µM, 10 µM and 12 µM, respectively.
For `Cn1nccc1C(=O)Nc1ccc(-c2ccc(OCC(F)(F)F)cc2)c(N)n1` [Example 122], in that order: 19 µM, 12 µM and 14 µM.
Turning to `Cn1nccc1C(=O)Nc1ccc(-c2ccccc2OC(F)F)c(N)n1` [Example 19, N-{6-Amino-5-[2-(difluoromethoxy)phenyl]pyridin-2-yl}-1-methyl-1H-pyrazole-5-carboxamide], the half-inhibitory concentration (IC50) is 14 µM at Human Nav1.8, 25 µM in assay [1] and > 32 µM at Human Nav1.5.
For `Cc1nocc1C(=O)Nc1ccc(-c2cc(F)ccc2C(F)(F)F)c(N)n1` [Example 39, N-{6-Amino-5-[5-fluoro-2-(trifluoromethyl)phenyl]pyridin-2-yl}-3-methylisoxazole-4-carboxamide], in that order: 0.93 µM, 13 µM and 21 µM.
In the same order, the values of `Cn1nccc1C(=O)Nc1ccc(-c2cc(Cl)ccc2OC(F)(F)F)c(N)n1` [Example 16, N-{6-Amino-5-[5-chloro-2-(trifluoromethoxy)phenyl]pyridin-2-yl}-1-methyl-1H-pyrazole-5-carboxamide] are 1.9 µM, 9.6 µM and 11 µM.
For the compound `Cn1nccc1C(=O)Nc1ccc(-c2ccc(OC(F)(F)F)cc2)c(N)n1` [Example 120], the concentration for half-maximal inhibition (IC50) on Human Nav1.8 was found to be 12 µM; in assay [1], 5.2 µM; at Human Nav1.5, 10 µM.
In the same order, the values of `Cn1nccc1C(=O)Nc1ccc(-c2cc(F)ccc2Cl)c(N)n1` [Example 6, N-[6-Amino-5-(2-chloro-5-fluorophenyl)pyridin-2-yl]-1-methyl-1H-pyrazole-5-carboxamide] are 1.1 µM, 23 µM and 13 µM.
In the same order, the values of `Cc1nocc1C(=O)Nc1ccc(-c2ccc(F)cc2)c(N)n1` [Example 40, N-[6-Amino-5-(4-fluorophenyl)pyridin-2-yl]-3-methylisoxazole-4-carboxamide] are 20 µM, 30 µM and 31 µM.
As to `COc1cc(Cl)c(Cl)c(-c2ccc(NC(=O)c3cnnn3C)nc2N)c1` [Example 81, N-[6-Amino-5-(2,3-dichloro-5-methoxyphenyl)pyridin-2-yl]-1-methyl-1H-1,2,3-triazole-5-carboxamide], the IC50 turned out to be 1.1 µM on Human Nav1.8, 7.5 µM in assay [1] and 2.9 µM at Human Nav1.5.
On to `Nc1nc(NC(=O)c2conc2C(F)(F)F)ccc1-c1ccccc1Cl` [Example 111], for which the IC50 at Human Nav1.8 is 0.51 µM; in assay [1], 6.1 µM; at Human Nav1.5, 16 µM.
In the same order, the values of `Cc1nocc1C(=O)Nc1ccc(-c2cc(F)ccc2F)c(N)n1` [Example 34, N-[6-Amino-5-(2,5-difluorophenyl)pyridin-2-yl]-3-methylisoxazole-4-carboxamide] are 3.1 µM, 19 µM and 16 µM.
For `Cn1nccc1C(=O)Nc1ccc(-c2ccccc2OCC(F)(F)F)c(N)n1` [Example 119], in that order: 2 µM, 26 µM and 31 µM.
Consider `CCn1nccc1C(=O)Nc1ccc(-c2cc(OC(F)(F)F)ccc2F)c(N)n1` [Example 64, N-{6-Amino-5-[2-fluoro-5-(trifluoromethoxy)phenyl]pyridin-2-yl}-1-ethyl-1H-pyrazole-5-carboxamide], for which the results for the IC50 (at Human Nav1.8; in assay [1]; on Human Nav1.5) were 5 µM, 3.7 µM and 14 µM, respectively.
In the same order, the values of `Cc1nocc1C(=O)Nc1ccc(-c2cc(F)ccc2OC(F)(F)F)c(N)n1` [Example 115] are 0.28 µM, 5.3 µM and 7.9 µM.
Take `CC(C)n1nccc1C(=O)Nc1ccc(-c2cc(F)ccc2Cl)c(N)n1` [Example 67, N-[6-Amino-5-(2-chloro-5-fluorophenyl)pyridin-2-yl]-1-isopropyl-1H-pyrazole-5-carboxamide]: the IC50 came to 5 µM at Human Nav1.8, 22 µM in assay [1] and 31 µM on Human Nav1.5.
For `CCn1nccc1C(=O)Nc1ccc(-c2ccccc2C(F)(F)F)c(N)n1` [Example 60, N-{6-Amino-5-[2-(trifluoromethyl)phenyl]pyridin-2-yl}-1-ethyl-1H-pyrazole-5-carboxamide], in that order: 4.3 µM, > 32 µM and 20 µM.
`COCc1oncc1C(=O)Nc1ccc(-c2ccccc2Cl)c(N)n1` [Example 91]: the IC50 on Human Nav1.8 is 2.6 µM; in assay [1] it was > 32 µM; at Human Nav1.5, > 32 µM.
Consider `Cc1n[nH]cc1C(=O)Nc1ccc(-c2ccccc2OC(F)(F)F)c(N)n1` [Example 108, N-{6-Amino-5-[2-(trifluoromethoxy)phenyl]pyridin-2-yl}-3-methyl-1H-pyrazole-4-carboxamide], for which the IC50 on Human Nav1.8 was 26 µM; in assay [1] it was 27 µM; at Human Nav1.5 it was > 32 µM.
In the same order, the values of `Cn1nccc1C(=O)Nc1ccc(-c2ccc(Cl)cc2Cl)c(N)n1` [Example 15, N-[6-Amino-5-(2,4-dichlorophenyl)pyridin-2-yl]-1-methyl-1H-pyrazole-5-carboxamide] are 10 µM, 21 µM and 13 µM.
For `COCc1nocc1C(=O)Nc1ccc(-c2ccccc2Cl)c(N)n1` [Example 89, N-[6-Amino-5-(2-chlorophenyl)pyridin-2-yl]-3-(methoxymethyl)isoxazole-4-carboxamide], in that order: 4.4 µM, > 32 µM and > 32 µM.
